Source: PubChem BioAssay (NCI)
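Values below derive from 48-hour exposures of cells grown in 96-well plates, with endpoints linearly interpolated between the two concentrations bracketing the appropriate inhibition level. The concentration for 50% growth inhibition is given as GI50. TGI: concentration producing complete growth inhibition.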

Tests used:
Assay in all cases: NCI anticancer screen, dose series, 48 h
[1] = tested on: 786-0 renal
[2] = tested on: A498 renal
[3] = tested on: A549 NSCLC
[4] = tested on: ACHN renal
[5] = tested on: BT-549 breast
[6] = tested on: CAKI-1 renal
[7] = tested on: CCRF-CEM leukemia
[8] = tested on: COLO 205 colon
[9] = tested on: DU-145 prostate
[10] = tested on: EKVX NSCLC
[11] = tested on: HCC-2998 colon
[12] = tested on: HCT-116 colon
[13] = tested on: HCT-15 colon
[14] = tested on: HL-60(TB) leukemia
[15] = tested on: HOP-62 NSCLC
[16] = tested on: HOP-92 NSCLC
[17] = tested on: HS 578T breast
[18] = tested on: HT29 colon
[19] = tested on: IGROV1 ovarian
[20] = tested on: K-562 leukemia
[21] = tested on: KM12 colon
[22] = tested on: LOX IMVI melanoma
[23] = tested on: M14 melanoma
[24] = tested on: MALME-3M melanoma
[25] = tested on: MCF7 breast
[26] = tested on: MDA-MB-231 breast
[27] = tested on: MDA-MB-435
[28] = tested on: MOLT-4 leukemia
[29] = tested on: NCI-H226 lung

For `O=C1Nc2cc(Cl)ccc2/C1=C\c1ccc(OCc2ccc(Br)cc2F)cc1`, the GI50 [1] was 1.98 µM, the TGI [1] was 3.66 µM and the GI50 [2] was 2.5 µM. It also gave a TGI [2] of 5.95 µM, a GI50 [3] of 2.04 µM and a TGI [3] of 4.62 µM. For the same compound, the GI50 [4] was 1.83 µM, the TGI [4] was 4.04 µM and the GI50 [5] was 2.1 µM. For the same compound, the TGI [5] was 4.69 µM, the GI50 [6] was 1.67 µM and the TGI [6] was 3.35 µM. It also gave a GI50 [7] of 3.74 µM, a TGI [7] of 22 µM and a GI50 [8] of 2.58 µM. It also gave a TGI [8] of 12.4 µM, a GI50 [9] of 2.93 µM and a TGI [9] of over 100 µM. For the same compound, the GI50 [10] was 3.85 µM, the TGI [10] was 18 µM and the GI50 [11] was 4.14 µM. The TGI [11] was 37.4 µM, the GI50 [12] was 1.38 µM and the TGI [12] was 2.87 µM. It also gave a GI50 [13] of 3.55 µM, a TGI [13] of 50.1 µM and a GI50 [14] of 53 µM. For the same compound, the TGI [14] was over 100 µM, the GI50 [15] was 1.79 µM and the TGI [15] was 3.76 µM. It also gave a GI50 [16] of 1.22 µM, a TGI [16] of 3.85 µM and a GI50 [17] of 1.91 µM. For the same compound, the TGI [17] was 6.2 µM, the GI50 [18] was 2.37 µM and the TGI [18] was 6.4 µM. The GI50 [19] was 2.07 µM, the TGI [19] was 5.13 µM and the GI50 [20] was 3.3 µM. For the same compound, the TGI [20] was over 100 µM, the GI50 [21] was 3.12 µM and the TGI [21] was 73.7 µM. It also gave a GI50 [22] of 1.49 µM, a TGI [22] of 2.88 µM and a GI50 [23] of 2.27 µM. For the same compound, the TGI [23] was 6.69 µM, the GI50 [24] was 1.97 µM and the TGI [24] was 4.27 µM. The GI50 [25] was 1.25 µM, the TGI [25] was 15.2 µM and the GI50 [26] was 2.2 µM. The TGI [26] was 5.34 µM, the GI50 [27] was 2.26 µM and the TGI [27] was 5.38 µM. The GI50 [28] was 3.57 µM, the TGI [28] was 26.1 µM and the GI50 [29] was 2.19 µM.
